Broadly, the melting point is the temperature, or range, at which the solid turns liquid.

Molecules are shown by their SMILES.

In the case of `COC(C)(C)CN1CCOc2cc3c(c(C4CC4)c21)CCNCC3` [Example 230], the melting point lay in the range of 155 to 156 °C.

Take `O=C(O)/C=C/C(=O)O.O=C(OCCc1ccccc1)N1CCOc2c1cc1c(c2-c2cccs2)CCNCC1`: the melting point fell in the range of 215 to 216 °C.

With `O=C(O)/C=C/C(=O)O.OCCN1CCOc2cc3c(c(C4CC4)c21)CCNCC3`, the melting point fell in the range of 146 to 150 °C.

The compound `COCCN1CC(C)Oc2cc3c(c(C4CC4)c21)CCNCC3.O=C(O)/C=C/C(=O)O` (stereo not drawn) returned a melting point of 102 to 103 °C. `COc1cccc(CN2C(=O)COc3cc4c(cc32)CCNCC4)c1.O=C(O)CCC(=O)O`: the melting point lay in the range of 188 to 189 °C. The figure for `CC1(C)CCNc2cc3c(cc21)CCNCC3` [Example 159] is 288 to 290 °C.

Turning to `CCN1CCOc2cc3c(c(C4CC4)c21)CCNCC3.O=C(O)/C=C/C(=O)O`, the melting point is 174 to 177 °C. Then `O=C(O)CCC(=O)O.O=C1COc2cc3c(cc2N1Cc1ccccc1Cl)CCNCC3`, with 119 to 127 °C; and `CCCc1c2c(cc3c1OCCN3C(=O)OCCc1ccccc1)CCNCC2.O=C(O)/C=C/C(=O)O`, with 134 to 136 °C. Then `CCOCCN1CCOc2cc3c(c(C)c21)CCNCC3.O=C(O)/C=C/C(=O)O`, with 152 to 155 °C; and `CC(C)COC(=O)N1CCCc2cc3c(cc21)CCNCC3.Cl`, with 202 to 207 °C; and `FC(F)CN1CCOc2cc3c(c(C4CC4)c21)CCNCC3.O=C(O)/C=C/C(=O)O`, with 198 to 201 °C. The figure for `CCOC(=O)N1CCOc2c1cc1c(c2Cl)CCNCC1.O=C(O)CCC(=O)O` is 145 to 147 °C; for `CCCC1CN(C)c2cc3c(cc2O1)CCNCC3.O=C(O)/C=C/C(=O)O` (stereo not drawn) it is 152 to 153 °C.

The compound `Cl.FC(F)(F)CN1CCOc2cc3c(c(Br)c21)CCNCC3` had a melting point of 214 to 215 °C. Then `CN1CCOc2cc3c(c(-c4cccs4)c21)CCNCC3.O=C(O)/C=C/C(=O)O`, with 248 to 252 °C. Then `CCCN1C(=O)CCc2cc3c(cc21)CCNCC3.Cl`, with 125 to 129 °C. The figure for `COCC(C)CN1CCOc2cc3c(cc21)CCNCC3` (stereo not drawn) [Example 318] is 129 to 132 °C; for `FC(F)(F)c1cccc(CN2CCOc3cc4c(cc32)CCNCC4)c1.O=C(O)/C=C/C(=O)O` it is 141 to 146 °C. In the case of `COCCN1c2cc3c(cc2OC[C@H]1C)CCNCC3.O=C(O)/C=C/C(=O)O`, the melting point was 133 to 136 °C. Then `COCCN1CCOc2cc3c(c(C=C(C)C)c21)CCNCC3.O=C(O)/C=C/C(=O)O`, with 173 to 176 °C; and `Fc1cccc(CN2CCOc3cc4c(c(C5CC5)c32)CCNCC4)c1F.O=C(O)/C=C/C(=O)O`, with 157 to 159 °C. Then `COCCN1C(=O)C(C)(C)Oc2cc3c(cc21)CCNCC3.O=C(O)/C=C/C(=O)O`, with 175 to 176 °C; and `CCCN1C(=O)CCc2cc3c(c(-c4ccccc4)c21)CCNCC3.O=C(O)CCC(=O)O`, with 196 to 200 °C; and `Fc1c(Cl)cccc1CN1CCOc2cc3c(c(C4CC4)c21)CCNCC3.O=C(O)/C=C/C(=O)O`, with 181 to 184 °C. The compound `COc1ccc(CN2C(=O)COc3cc4c(cc32)CCNCC4)cc1.O=C(O)CCC(=O)O` gave a melting point of 173 to 176 °C. Compound `CCCN1C(=O)CCc2cc3c(c(C4CC4)c21)CCNCC3.O=C(O)CCC(=O)O` came in with a melting point of 170 to 171 °C. Then `CC1(C)CCc2cc3c(cc2N1)CCNCC3`, with 270 to 273 °C; and `COc1cccc(CCOC(=O)N2CCOc3cc4c(cc32)CCNCC4)c1.O=C(O)CCC(=O)O`, with 134 to 136 °C; and `COCCN1CCOc2c1cc1c(c2Cl)CCNCC1.O=C(O)CCC(=O)O`, with 139 to 141 °C. Then `O=C(O)CCC(=O)O.O=C(OCCc1ccccc1Cl)N1CCCc2cc3c(cc21)CCNCC3`, with 187 to 188 °C; and `COCCN1CCC(C)(C)c2cc3c(cc21)CCNCC3.O=C(O)/C=C/C(=O)O`, with 172 to 175 °C.

The compound `CC(COC(=O)N1CCOc2cc3c(cc21)CCNCC3)c1ccccc1.O=C(O)CCC(=O)O` (stereo not drawn) registered a melting point of 177 to 179 °C. The figure for `CN1CCC(C)(C)c2cc3c(cc21)CCNCC3.O=C(O)/C=C/C(=O)O` is 197 to 200 °C; for `C[C@H](F)CN1CCOc2cc3c(c(C4CC4)c21)CCNCC3.O=C(O)/C=C/C(=O)O` it is 171 to 173 °C; for `COCCCN1C(=O)CCc2cc3c(c(Br)c21)CCNCC3.O=C(O)/C=C/C(=O)O` it is 153 to 155 °C. The figure for `O=C(O)CCC(=O)O.O=C(OCCc1ccccc1F)N1CCOc2cc3c(cc21)CCNCC3` is 186 to 187 °C; for `O=C(O)CCC(=O)O.O=C1COc2cc3c(cc2N1Cc1cccc(Cl)c1)CCNCC3` it is 192 to 194 °C; for `COc1ccc(Cl)cc1CN1CCOc2cc3c(c(C4CC4)c21)CCNCC3.O=C(O)/C=C/C(=O)O` it is 193 to 196 °C. Then `Cl.FC(F)(F)CN1CCOc2c1cc1c(c2Br)CCNCC1`, with 216 to 221 °C.

The compound `CC(C)CN1C(=O)CCc2cc3c(cc21)CCNCC3.O=C(O)CCC(=O)O` returned a melting point of 142 to 144 °C. The figure for `COCCN1C(=O)CCc2cc3c(c(Br)c21)CCNCC3.O=C(O)/C=C/C(=O)O` is 99 to 104 °C. Compound `COc1ccccc1CCOC(=O)N1CCOc2cc3c(cc21)CCNCC3.O=C(O)CCC(=O)O` displayed a melting point of 158 to 160 °C. With `O=C(O)CCC(=O)O.O=C(OCCc1ccccc1)N1CCOc2c1cc1c(c2Br)CCNCC1`, the melting point was in the range of 142 to 143 °C. Then `CCNC(=O)N1CCCc2cc3c(c(C)c21)CCNCC3.O=C(O)C(=O)O`, with 170 to 171 °C; and `COC[C@H](CN1CCOc2cc3c(c(C4CC4)c21)CCNCC3)OC.O=C(O)/C=C/C(=O)O`, with 150 to 154 °C.

The compound `FC1(F)Oc2ccc(CN3CCOc4cc5c(c(C6CC6)c43)CCNCC5)cc2O1.O=C(O)/C=C/C(=O)O` showed a melting point of 161 to 164 °C. The figure for `CCCc1c2c(cc3c1N(C)CCO3)CCNCC2` [Example 225] is 151 to 152 °C; for `O=C(O)/C=C/C(=O)O.c1c2c(c(C3CC3)c3c1OCCN3CC1CCOC1)CCNCC2` (stereo not drawn) it is 117 to 118 °C; for `O=C(O)CCC(=O)O.c1ccc(CN2CCOc3cc4c(c(C5CC5)c32)CCNCC4)cc1` it is 107 to 110 °C. The figure for `Fc1cccc(CN2CCOc3cc4c(c(C5CC5)c32)CCNCC4)c1.O=C(O)CCC(=O)O` is 102 to 105 °C; for `O=C(O)C(=O)O.O=C(OCCc1ccccc1)N1CCCc2cc3c(c(Br)c21)CCNCC3` it is 176 to 177 °C; for `COC[C@@H](CN1CCOc2cc3c(c(C4CC4)c21)CCNCC3)OC.O=C(O)/C=C/C(=O)O` it is 156 to 158 °C. `CCOCc1cc(F)c(OCCN2CCOc3cc4c(c(C5CC5)c32)CCNCC4)c(F)c1.O=C(O)/C=C/C(=O)O` had a melting point of 138 to 139 °C.

In the case of `COCCN1CCOc2cc3c(c(-c4ccccc4F)c21)CCNCC3.O=C(O)/C=C/C(=O)O`, the melting point lay within 179 to 182 °C. The compound `CCCN1CCOc2cc3c(c(C4CC4)c21)CCNCC3.O=C(O)/C=C/C(=O)O` had a melting point of 138 to 141 °C.

On to `COCCN1CCOc2c1cc1c(c2Br)CCNCC1` [Example 176], for which the melting point fell in the range of 107 to 110 °C. `Clc1ccccc1CN1CCOc2cc3c(c(C4CC4)c21)CCNCC3.O=C(O)CCC(=O)O` showed a melting point of 106 to 109 °C. In turn, `COCC(C)(C)CN1CCOc2cc3c(c(C4CC4)c21)CCNCC3` [Example 231] returned a melting point of 141 to 145 °C. In turn, `O=C(O)CCC(=O)O.O=C(OCCc1ccccc1)N1CCOc2c1cc1c(c2C2CC2)CCNCC1` yielded a melting point of 142 to 144 °C. The figure for `O=C(O)/C=C/C(=O)O.c1nc(CN2CCOc3cc4c(cc32)CCNCC4)cs1` is 134 to 138 °C; for `CCOC(=O)N1CCCc2cc3c(c(Br)c21)CCNCC3.O=C(O)C(=O)O` it is 187 to 189 °C; for `COCCN1C(=O)CCc2cc3c(cc21)CCNCC3.O=C(O)/C=C/C(=O)O` it is 164 to 166 °C. For the compound `CC1(C)CC(=O)Nc2cc3c(cc21)CCNCC3.Cl`, the melting point fell in the range of 270 to 272 °C. `Clc1cccc(-c2c3c(cc4c2NCCC4)CCNCC3)c1.O=C(O)/C=C/C(=O)O` gave a melting point of 159 to 162 °C. As for `Cl.FC(F)(F)CN1CCOc2cc3c(cc21)CCNCC3`, the melting point was in the range of 221 to 222 °C. `CCOCCN1CCOc2cc3c(c(CC)c21)CCNCC3.O=C(O)/C=C/C(=O)O` returned a melting point of 179 to 181 °C. The figure for `COCCN1c2cc3c(cc2OC[C@@H]1C)CCNCC3.O=C(O)/C=C/C(=O)O` is 131 to 134 °C. Then `CC(C)CN1CCOc2cc3c(c(C4CC4)c21)CCNCC3` [Example 262], with 160 to 162 °C. Then `O=C(O)CCC(=O)O.O=C(OCCc1cccc(F)c1)N1CCOc2cc3c(cc21)CCNCC3`, with 162 to 164 °C; and `O=C1CCc2cc3c(c(Cl)c2N1)CCNCC3` [Example 1, 11-chloro-1,3,4,6,7,8,9,10-octahydro-2H-azepino[4,5-g]quinolin-2-one], with 165 to 167 °C; and `CCNC(=O)N1CCCc2cc3c(cc21)CCNCC3.O=C(O)/C=C/C(=O)O`, with 174 to 176 °C. Turning to `COc1ccc(F)cc1CN1CCOc2cc3c(c(C4CC4)c21)CCNCC3.O=C(O)/C=C/C(=O)O`, the melting point was in the range of 189 to 192 °C. Turning to `O=C(O)CCC(=O)O.O=C(OCCc1ccccc1Cl)N1CCOc2cc3c(cc21)CCNCC3`, the melting point was 169 to 170 °C. As to `c1c2c(c(C3CC3)c3c1OCCN3CC1CCOCC1)CCNCC2` [Example 250], the melting point was 153 to 155 °C. For the compound `CC(Cc1ccccc1)OC(=O)N1CCOc2cc3c(cc21)CCNCC3.O=C(O)CCC(=O)O` (stereo not drawn), the melting point lay within 85 to 87 °C. As to `O=C(O)CCC(=O)O.O=C(OCCc1ccc(F)cc1)N1CCOc2cc3c(cc21)CCNCC3`, the melting point was in the range of 179 to 181 °C. On to `COCCCN1CCOc2cc3c(c(C)c21)CCNCC3.O=C(O)/C=C/C(=O)O`, for which the melting point is 160 to 163 °C.

For the origin of these results see patent US9598434B2, “Benzazepine compound” (Astellas Pharma Inc., priority 2010, dated 2017).
